The results in this text go back to the NIST ThermoML archive (doi:10.1016/j.tca.2013.06.032).

Numbers after ± are expanded uncertainties.

The conditions of data set [1]: Crystal; DTA.
Data set [2] is described as follows: Molar enthalpy of transition or fusion. The following applies: Crystal; DSC.

`Cc1nc2n(c(=O)c1CCN1CCC(c3noc4cc(F)ccc34)CC1)CCCC2` [risperidone]: the Normal melting temperature in data set [1] was determined as 170.52 ± 1.1 °C. The “Molar enthalpy of transition or fusion” value in data set [2] came to 10 ± 0.263 kcal/mol.
